Data: patent US20040076974A1, “Liver necrosis predictive genes” (priority 2002, published 2004)
“And” between values parts separate entries of the source, which are not always exact repeats. Equal entries are not always repeated. Where two headings read alike, the source gives them in different places.

Tested on: toxicologically relevant rat genes (rat CT array)

SMILES: Brc1ccccc1 [bromobenzene]
- Phase-1 RCT-192 expression (treatment/control) (24 h, dose 200, listed as BRB): 1.596
- Phase-1 RCT-213 expression (treatment/control) (24 h, dose 200, listed as BRB): 1.467
- Phase-1 RCT-214 expression (treatment/control) (24 h, dose 200, listed as BRB): 0.4191 and 0.7327 and 0.3835
- Phase-1 RCT-239 expression (treatment/control) (24 h, dose 200, listed as BRB): 0.6828
- Phase-1 RCT-258 expression (treatment/control) (24 h, dose 200, listed as BRB): 0.9631 and 1.542
- Phase-1 RCT-271 expression (treatment/control) (24 h, dose 200, listed as BRB): 0.5825 and 0.5279
- Phase-1 RCT-291 expression (treatment/control) (24 h, dose 200, listed as BRB): 1.199 and 0.6861
- Phase-1 RCT-295 expression (treatment/control) (24 h, dose 200, listed as BRB): 2.141 and 1.945 and 1.916
- Proliferating cell nuclear antigen gene expression (treatment/control) (24 h, dose 200, listed as BRB): 1.304 and 0.7642 and 1.223
- Pyruvate kinase, muscle expression (treatment/control) (24 h, dose 200, listed as BRB): 1.814 and 1.17 and 1.778
- Ref-1 expression (treatment/control) (24 h, dose 200, listed as BRB): 2.201 and 1.238 and 2.06
- Ribosomal protein L13A expression (treatment/control) (24 h, dose 200, listed as BRB): 2.014 and 1.811 and 2.099
- Ribosomal protein S8 expression (treatment/control) (24 h, dose 200, listed as BRB): 2.657 and 2.216 and 2.391
- Ribosomal protein S9 expression (treatment/control) (24 h, dose 200, listed as BRB): 1.821 and 1.272 and 1.544
- Ribosomal protein S17 expression (treatment/control) (24 h, dose 200, listed as BRB): 2.853 and 2.061 and 2.44
- Superoxide dismutase Mn expression (treatment/control) (24 h, dose 200, listed as BRB): 2.675 and 1.611 and 3.075
- T-cell cyclophilin expression (treatment/control) (24 h, dose 200, listed as BRB): 1.63 and 1.482 and 1.522
- Thymosin beta-10 expression (treatment/control) (24 h, dose 200, listed as BRB): 1.331 and 1.367 and 1.373
- Ubiquitin conjugating enzyme (RAD 6 homologue) expression (treatment/control) (24 h, dose 200, listed as BRB): 1.182 and 0.8017 and 1.22
- Uncoupling protein 2 expression (treatment/control) (24 h, dose 200, listed as BRB): 0.9873 and 1.103
- c-H-ras expression (treatment/control) (24 h, dose 200, listed as BRB): 1.3
- c-jun expression (treatment/control) (24 h, dose 200, listed as BRB): 1.819 and 1.494 and 2.242
- p53 expression (treatment/control) (24 h, dose 200, listed as BRB): 1.448 and 1.7
- {Ribosomal protein L6} expression (treatment/control) (24 h, dose 200, listed as BRB): 2.964 and 2.141 and 2.538
- 14-3-3 zeta expression (treatment/control) (24 h, dose 800, listed as BRB): 1.787 and 1.416 and 1.415
- 17-beta hydroxysteroid dehydrogenase, type 2 expression (treatment/control) (24 h, dose 800, listed as BRB): 0.2858 and 0.3548 and 0.3188
- Cathepsin L, sequence 2 expression (treatment/control) (24 h, dose 800, listed as BRB): 3.444 and 2.804 and 1.941
- Dynamin-1 (D100) expression (treatment/control) (24 h, dose 800, listed as BRB): 0.7266 and 0.7238 and 0.7854
- Gadd45 expression (treatment/control) (24 h, dose 800, listed as BRB): 3.152 and 4.261 and 2.965
- Gamma-actin, cytoplasmic expression (treatment/control) (24 h, dose 800, listed as BRB): 4.159 and 3.751 and 3.387
- Insulin-like growth factor binding protein 1 expression (treatment/control) (24 h, dose 800, listed as BRB): 2.338 and 2.353 and 1.62
- L-gulono-gamma-lactone oxidase expression (treatment/control) (24 h, dose 800, listed as BRB): 0.3036 and 0.326 and 0.3525
- Matrin F/G expression (treatment/control) (24 h, dose 800, listed as BRB): 0.4315 and 0.4295 and 0.6079
- Ornithine decarboxylase expression (treatment/control) (24 h, dose 800, listed as BRB): 2.92 and 2.902 and 2.002
- PAR interacting protein expression (treatment/control) (24 h, dose 800, listed as BRB): 3.554 and 2.34
- Phase-1 RCT-33 expression (treatment/control) (24 h, dose 800, listed as BRB): 0.6976 and 0.5633 and 0.5757
- Phase-1 RCT-36 expression (treatment/control) (24 h, dose 800, listed as BRB): 0.7359 and 0.7782
- Phase-1 RCT-38 expression (treatment/control) (24 h, dose 800, listed as BRB): 0.4296 and 0.4024 and 0.4536
- Phase-1 RCT-39 expression (treatment/control) (24 h, dose 800, listed as BRB): 1.555 and 1.399
- Phase-1 RCT-40 expression (treatment/control) (24 h, dose 800, listed as BRB): 0.4257 and 0.4952 and 0.445
- Phase-1 RCT-48 expression (treatment/control) (24 h, dose 800, listed as BRB): 0.6158 and 0.633
- Phase-1 RCT-49 expression (treatment/control) (24 h, dose 800, listed as BRB): 2.478 and 2.062 and 1.658
- Phase-1 RCT-50 expression (treatment/control) (24 h, dose 800, listed as BRB): 2.438 and 2.537 and 1.76
- Phase-1 RCT-68 expression (treatment/control) (24 h, dose 800, listed as BRB): 2.05 and 1.892 and 1.519
- Phase-1 RCT-78 expression (treatment/control) (24 h, dose 800, listed as BRB): 0.5752 and 0.6922 and 0.6621
- Phase-1 RCT-83 expression (treatment/control) (24 h, dose 800, listed as BRB): 0.6019 and 0.6858 and 0.5634
- Phase-1 RCT-89 expression (treatment/control) (24 h, dose 800, listed as BRB): 0.4544 and 0.462 and 0.4723
- Phase-1 RCT-92 expression (treatment/control) (24 h, dose 800, listed as BRB): 0.4761 and 0.6497 and 0.7002
- Phase-1 RCT-128 expression (treatment/control) (24 h, dose 800, listed as BRB): 0.5684 and 0.564 and 0.6
- Phase-1 RCT-144 expression (treatment/control) (24 h, dose 800, listed as BRB): 3.092 and 2.983 and 2.106
- Phase-1 RCT-145 expression (treatment/control) (24 h, dose 800, listed as BRB): 2.75 and 1.96 and 1.846
- Phase-1 RCT-180 expression (treatment/control) (24 h, dose 800, listed as BRB): 1.726
- Phase-1 RCT-182 expression (treatment/control) (24 h, dose 800, listed as BRB): 0.5041 and 0.56 and 0.6572
- Phase-1 RCT-207 expression (treatment/control) (24 h, dose 800, listed as BRB): 3.826 and 2.754 and 2.464
- Phase-1 RCT-213 expression (treatment/control) (24 h, dose 800, listed as BRB): 2.021 and 2.316 and 1.605
- Phase-1 RCT-256 expression (treatment/control) (24 h, dose 800, listed as BRB): 0.3752 and 0.4196 and 0.4307
- Phase-1 RCT-258 expression (treatment/control) (24 h, dose 800, listed as BRB): 1.65
- Phase-1 RCT-264 expression (treatment/control) (24 h, dose 800, listed as BRB): 0.3546 and 0.4999 and 0.3553
- Phase-1 RCT-271 expression (treatment/control) (24 h, dose 800, listed as BRB): 0.5889 and 0.6221
- Phase-1 RCT-288 expression (treatment/control) (24 h, dose 800, listed as BRB): 0.3511 and 0.3915 and 0.4038
- Phase-1 RCT-291 expression (treatment/control) (24 h, dose 800, listed as BRB): 0.6663 and 0.746 and 0.732
- Phase-1 RCT-295 expression (treatment/control) (24 h, dose 800, listed as BRB): 1.75 and 2.065 and 1.52
- Phase-1 RCT-296 expression (treatment/control) (24 h, dose 800, listed as BRB): 0.3839 and 0.27 and 0.2605
- Ribosomal protein S17 expression (treatment/control) (24 h, dose 800, listed as BRB): 2.61 and 2.612 and 1.969
- Senescence marker protein-30 expression (treatment/control) (24 h, dose 800, listed as BRB): 0.1397 and 0.1646 and 0.1474
- Zinc finger protein expression (treatment/control) (24 h, dose 800, listed as BRB): 3.935 and 2.153 and 2.076
- Paraoxonase 1 expression (treatment/control) (rat, in vivo): 0.8235 and 0.866 and 0.513
